In ChEMBL document CHEMBL1614632, “Trend analysis of a database of intravenous pharmacokinetic parameters in humans for 670 drug compounds” (Drug Metab Dispos, 2008):

What was measured:
clinical [1] = details: human, in vivo, iv
clinical [2] = details: human, in vivo, iv, t1/2
clinical [3] = details: human, in vivo, iv; remark: listed apart in the source
clinical [4] = details: human, in vivo, iv, Vdss
clinical [5] = details: human, in vivo, iv, CL

Row | SMILES | MRT (clinical [1]) [h] | half-life (clinical [2]) [h] | fraction unbound (clinical [3]) | Vd (clinical [4]) [L/kg] | clearance (clinical [5]) [mL/min/kg]
1 | CO/N=C(\C(=O)N[C@@H]1C(=O)N2C(C(=O)[O-])=C(C[n+]3cccc4c3CCC4)CS[C@H]12)c1csc(N)n1 [CEFPIROME] | 2.1 | 1.7 | 0.9 | 0.24 | 1.9
2 | CN(C)CCCN1c2ccccc2CCc2cc(O)ccc21 [2-HYDROXYIMIPRAMINE] | 12 | 10 | 0.36 | 6.6 | 9.2
3 | Nc1ccc(O)c(C(=O)O)c1 [MESALAMINE] | 0.59 | 0.61 | 0.39 | 0.33 | 9.3
4 | CSc1ccc(C(=O)c2[nH]c(=O)[nH]c2C)cc1 [ENOXIMONE] | 1 | 1 | 0.3 | 1.8 | 29
5 | CCC(=O)O[C@](Cc1ccccc1)(c1ccccc1)[C@H](C)CN(C)C [PROPOXYPHENE] | 13.3 | 18 | 0.24 | 12 | 15
6 | CN(C)CCc1c[nH]c2ccc(CS(=O)(=O)N3CCCC3)cc12 [ALMOTRIPTAN] | 4.2 | 3.4 | 0.6 | 2.2 | 8.9
7 | NC(=O)OC[C@@H]1[C@H](NC(=O)/C(=N\OCC(=O)O)c2csc(N)n2)C(=O)N1S(=O)(=O)O [CARUMONAM] | 2 | 1.6 | 0.72 | 0.18 | 1.5
8 | CC1(C)O[C@@H]2C[C@H]3[C@@H]4CCC5=CC(=O)C=C[C@]5(C)[C@@]4(F)[C@@H](O)C[C@]3(C)[C@]2(C(=O)CO)O1 [TRIAMCINOLONE ACETONIDE] | 2.5 | 2.4 | 0.2 | 1.4 | 9.4
9 | O=c1c(O)c(-c2ccc(O)c(O)c2)oc2cc(O)cc(O)c12 [QUERCETIN] | 0.2 | 0.6 | 0.009 | 0.12 | 11
10 | CC1(C)C[C@@H]1C(=O)N/C(=C\CCCCSC[C@H](N)C(=O)O)C(=O)O [CILASTATIN] | 1.1 | 0.86 | 0.6 | 0.15 | 2.3
11 | CC(=O)O[C@H]1C(=O)[C@@]2(C)[C@H]([C@H](OC(=O)c3ccccc3)[C@]3(O)C[C@H](OC(=O)[C@H](O)[C@@H](NC(=O)c4ccccc4)c4ccccc4)C(C)=C1C3(C)C)[C@]1(OC(C)=O)CO[C@@H]1C[C@@H]2O [PACLITAXEL] | 7.8 | 11 | 0.12 | 3 | 6.4
12 | C#C[C@]1(O)C=C[C@H]2[C@@H]3CCC4=CC(=O)CC[C@@H]4[C@H]3CC[C@@]21CC [GESTODENE] | 9.6 | 10 | 0.023 | 0.46 | 0.8
13 | CCCCCN(C)CCC(O)(P(=O)(O)O)P(=O)(O)O [IBANDRONIC ACID] | 5.1 | 14 | 0.15 | 0.55 | 1.8
14 | Nc1c(CC(=O)O)cccc1C(=O)c1ccc(Br)cc1 [BROMFENAC] | 1.5 | 2.6 | 0.0011 | 0.11 | 1.3
15 | CCn1cc(C(=O)O)c(=O)c2cc(F)c(N3CCNCC3)nc21 [ENOXACIN] | 6.2 | 5.1 | 0.8 | 2 | 5.4
16 | C[C@@H]([C@@H](O)c1ccc(O)cc1)N1CCC(O)(c2ccccc2)CC1 [TRAXOPRODIL] | 2.6 | 3.7 | 0.63 | 4.4 | 27
17 | CN[C@@H](C)Cc1ccccc1 [METHAMPHETAMINE] | 16 | 12 | 0.85 | 4.3 | 4.4
18 | Cc1ncsc1CCCl [CLOMETHIAZOLE] | 3.3 | 4.5 | 0.36 | 6.6 | 33
19 | CC1(C)S[C@@H]2[C@H](NC(=O)Cc3ccccc3)C(=O)N2[C@H]1C(=O)O [PENICILLIN G] | 0.58 | 0.7 | 0.4 | 0.24 | 6.9
20 | C[C@@H]1CC(=O)NN=C1c1ccc(NN=C(C#N)C#N)cc1 [LEVOSIMENDAN] | 1.1 | 1.1 | 0.02 | 0.24 | 3.8
21 | CCN[C@@H](C)Cc1cccc(C(F)(F)F)c1 [DEXFENFLURAMINE] | 18 | 14 | 0.66 | 11 | 11

Row | SMILES | MRT (clinical [1]) [h] | half-life (clinical [2]) [h] | fraction unbound (clinical [3]) | Vd (clinical [4]) [L/kg] | clearance (clinical [5]) [mL/min/kg]
22 | C/C=C/C[C@@H](C)C(=O)[C@H]1C(=O)N[C@@H](C(C)C)C(=O)N(C)CC(=O)N(C)[C@@H](CC(C)C)C(=O)N[C@@H](C(C)C)C(=O)N(C)[C@@H](CC(C)C)C(=O)N[C@@H](C)C(=O)N[C@H](C)C(=O)N(C)[C@@H](CC(C)C)C(=O)N(C)[C@@H](CC(C)C)C(=O)N(C)[C@@H](C(C)C)C(=O)N1C [VALSPODAR] | 12 | 10 | 0.022 | 1.8 | 2.6
23 | CCN(CC)CCNC(=O)c1cc(Br)c(N)cc1OC [BROMOPRIDE] | 4 | 2.9 | 0.6 | 3.1 | 13
24 | CNC(=O)c1cccc2c(Nc3ccc(NS(C)(=O)=O)cc3OC)c3cccc(C)c3nc12 [ASULACRINE] | 1.9 | 2.4 | 0.0011 | 0.3 | 2.6
25 | CCCCCc1cc(O)c2c(c1)OC(C)(C)[C@@H]1CCC(C)=C[C@@H]21 [DRONABINOL] | 46 | 33 | 0.05 | 8.9 | 3.2
26 | CCCc1cc(=O)[nH]c(=S)[nH]1 [PROPYLTHIOURACIL] | 1.8 | 1.3 | 0.18 | 0.34 | 3.1
27 | Cc1cn([C@H]2C=C[C@@H](CO)O2)c(=O)[nH]c1=O [STAVUDINE] | 1.4 | 1.4 | 1 | 0.67 | 8.2
28 | CN(C)[C@@H]1C(O)=C(C(N)=O)C(=O)[C@@]2(O)C(O)=C3C(=O)c4c(O)cccc4[C@@](C)(O)[C@H]3[C@H](O)[C@@H]12 [OXYTETRACYCLINE] | 12 | 10 | 0.9 | 1.7 | 2
29 | CCN(C)C(=O)Oc1cccc([C@H](C)N(C)C)c1 [RIVASTIGMINE] | 1.9 | 1.4 | 0.6 | 1.3 | 12
30 | C#C[C@]1(O)CC[C@H]2[C@@H]3CCC4=CC(=O)CC[C@@H]4[C@H]3CC[C@@]21CC [LEVONORGESTREL] | 14 | 9.4 | 0.025 | 1.5 | 1.8
31 | COc1ccccc1Oc1c(NS(=O)(=O)c2ccc(C(C)(C)C)cc2)nc(-c2ncccn2)nc1OCCO [BOSENTAN] | 2.3 | 4.1 | 0.037 | 0.29 | 2.1
32 | CC(=O)Nc1nnc(S(N)(=O)=O)s1 [ACETAZOLAMIDE] | 9.5 | 13 | 0.04 | 0.37 | 0.65
33 | CC(C)c1cccc(C(C)C)c1O [PROPOFOL] | 2.2 | 3.2 | 0.016 | 4.7 | 36
34 | CC(=O)OCC1=C(C(=O)O)N2C(=O)[C@@H](NC(=O)Cc3cccs3)[C@H]2SC1 [CEPHALOTHIN] | 0.65 | 0.95 | 0.22 | 0.07 | 1.8
35 | Cc1onc(-c2ccccc2)c1C(=O)N[C@@H]1C(=O)N2[C@@H]1SC(C)(C)[C@@H]2C(=O)O [OXACILLIN] | 0.5 | 0.7 | 0.07 | 0.19 | 6.3
36 | C[C@@H](CN1CC(=O)NC(=O)C1)N1CC(=O)NC(=O)C1 [DEXRAZOXANE] | 3 | 2.5 | 1 | 0.55 | 3.1
37 | CC[C@@]1(O)C(=O)OCc2c1cc1n(c2=O)Cc2cc3c(N)cccc3nc2-1 [9-AMINOCAMPTOTHECIN] | 5.6 | 7 | 0.003 | 2.2 | 6.5
38 | CCC1CN2CCC1CC2[C@@H](O)c1ccnc2ccc(OC)cc12 (stereo not given in full) [DIHYDROQUINIDINE] | 11 | 5.7 | 0.22 | 2.8 | 4.2
39 | CN(C)[C@@H]1C(O)=C(C(=O)NCN2CCCC2)C(=O)[C@@]2(O)C(O)=C3C(=O)c4c(O)cccc4[C@@](C)(O)[C@H]3C[C@@H]12 [ROLITETRACYCLINE] | 9.3 | 8.8 | 0.5 | 0.54 | 0.97
40 | CN1CC[C@H](c2c(O)cc(O)c3c(=O)cc(-c4ccccc4Cl)oc23)[C@H](O)C1 [ALVOCIDIB] | 4 | 5.2 | 0.06 | 1.5 | 6.1
41 | C#C[C@]1(O)CC[C@H]2[C@@H]3CCc4cc(O)ccc4[C@H]3CC[C@@]21C [ETHINYL ESTRADIOL] | 11 | 9.7 | 0.014 | 4.3 | 7
42 | COc1cccc(OC)c1C(=O)N[C@@H]1C(=O)N2[C@@H]1SC(C)(C)[C@@H]2C(=O)O [METHICILLIN] | 0.8 | 0.64 | 0.43 | 0.32 | 6.6
